Measured values reported in PMC9304322, “Targeting retinoic acid receptor alpha-corepressor interaction activates chaperone-mediated autophagy and protects against retinal degeneration” (Nature Communications, 2022).
“And” between values parts separate entries of the source, which are not always exact repeats. Equal entries are not always repeated.

What was measured:
[1] = tested on: NIH3T3 stably expressing the KFERQ-PS-Dendra; assay: CMA activity, KFERQ-PS-Dendra fluorescent reporter in NIH3T3 mouse fibroblasts; format: cell-based; design: CMA activity (Fig. 1d), MEAN / CMA activity (Fig. 1e-g), mean / CMA activity (Fig. 1d), individual experiments / CMA activity, mean (Fig. S2c, second panel) / CMA activity, mean (Fig. S2c, first panel) / CMA activity, mean (Fig. S2c, third panel): unit not given here; conditions: for CMA activity (Fig. 1e-g), mean: n = 4
Method: (§1) Cells were transduced with lentivirus carrying the KFERQ-PS-Dendra reporter as before. Cells were photoactivated by exposure to a 3.5 mA (current constant) light emitting diode (LED: Norlux, 405 nm) for 3 min and then plated in glass-bottom 96 well plates. At the desired times, cells were fixed with 4% PFA and imaged using high-content microscopy (Operetta system, Perkin Elmer). Images were quantified using the manufacturer’s software in a minimum of 1,200 cells in 9 independent fields per well. […] This was particularly important in the case of primary human cells where the efficiency of transduction was ~65%. To avoid confounding effects for drug-induced changes in cell volume or adherence to the plate that could bring a fraction of the cells per field outside of focus, we set a threshold to count only […] that have at least 1/10 of the average number of […] detected in the untreated wells for each cell type (3–4 puncta/cell in the case of NIH3T3 and N2a cells and 5 puncta/cell in primary human fibroblasts).

[2] = tested on: primary human fibroblast expressing the KFERQ-PS-Dendra reporter; assay: CMA activity, KFERQ-PS-Dendra reporter in primary human fibroblasts; format: cell-based; design: key to CMA activity, mean (Fig. S2c): puncta per cell
Method: as §1

[3] = tested on: NIH3T3 cells stably expressing the mCherry-GFP-LC3 reporter; assay: Macroautophagy activity, mCherry-GFP-LC3 reporter; format: cell-based, mouse
Method: Cells were transduced with a lentiviral vector expressing mCherry-GFP-LC3[35], fixed and flux determined as the conversion of dual fluorescence puncta (autophagosomes) into only red fluorescent puncta (autolysosomes). Flux was also measured by immunoblot for LC3 in cells incubated for 6 h with 20 mM NH4Cl/100 μM leupeptin, by discounting the intensity of LC3 in non-treated cells from that in cells treated with the inhibitors.

[4] = c0 = 2 (axis unlabelled; ANOVA calls row factor Time)

Structure (SMILES): CC(=O)Nc1ccc(C2=Nc3ccc(Cl)cc3OC2)cc1 [CA77]
- CMA activity (Fig. 1d), MEAN ([1]; 20 μM of each compound, n = 3 independent experiments): 3.597
- CMA activity (Fig. 1d), individual experiments ([1]; 20 μM of each compound, single experiments): 3.288 and 3.538 and 3.964
- CMA activity (Fig. 1e-g), mean ([1]; 12h, concentration 0.02 (unit not given)): 6.451
- CMA activity (Fig. 1e-g), mean ([1]; 12h, concentration 0.2): 6.218
- CMA activity (Fig. 1e-g), mean ([1]; 12h, concentration 2): 6.38
- CMA activity (Fig. 1e-g), mean ([1]; 12h, concentration 5): 31.6977
- CMA activity (Fig. 1e-g), mean ([1]; 12h, concentration 10): 39.5886
- CMA activity (Fig. 1e-g), mean ([1]; 12h, concentration 20): 52.9995
- CMA activity (Fig. 1e-g), mean ([1]; 12h, concentration 30): 60.386
- CMA activity (Fig. 1e-g), mean ([1]; 12h, concentration 40): 43.8824
- CMA activity (Fig. 1e-g), mean ([1]; 12h, concentration 50): 33.4774
- CMA activity (Fig. 1e-g), mean ([1]; 24h, concentration 0.02): 5.564
- CMA activity (Fig. 1e-g), mean ([1]; 24h, concentration 0.2): 6.782
- CMA activity (Fig. 1e-g), mean ([1]; 24h, concentration 2): 8.318
- CMA activity (Fig. 1e-g), mean ([1]; 24h, concentration 5): 26.3626
- CMA activity (Fig. 1e-g), mean ([1]; 24h, concentration 10): 39.2844
- CMA activity (Fig. 1e-g), mean ([1]; 24h, concentration 20): 59.6703
- CMA activity (Fig. 1e-g), mean ([1]; 24h, concentration 30): 82.4074
- CMA activity (Fig. 1e-g), mean ([1]; 24h, concentration 40): 57.9474
- CMA activity (Fig. 1e-g), mean ([1]; 24h, concentration 50): 59.2412
- CMA activity (Fig. 1h-j), mean, untreated (0) = 1 ([1]; concentration 0.2, 12+12w (12 h, then 12 h after washing out)): 0.8003
- CMA activity (Fig. 1h-j), mean, untreated (0) = 1 ([1]; concentration 0.2, 12h): 0.5989
- CMA activity (Fig. 1h-j), mean, untreated (0) = 1 ([1]; concentration 0.2, 24h): 0.8798
- CMA activity (Fig. 1h-j), mean, untreated (0) = 1 ([1]; concentration 2, 12+12w): 0.935
- CMA activity (Fig. 1h-j), mean, untreated (0) = 1 ([1]; concentration 2, 12h): 0.6146
- CMA activity (Fig. 1h-j), mean, untreated (0) = 1 ([1]; concentration 2, 24h): 1.079
- CMA activity (Fig. 1h-j), mean, untreated (0) = 1 ([1]; concentration 5, 12+12w): 4.471
- CMA activity (Fig. 1h-j), mean, untreated (0) = 1 ([1]; concentration 5, 12h): 3.053
- CMA activity (Fig. 1h-j), mean, untreated (0) = 1 ([1]; concentration 5, 24h): 3.42
- CMA activity (Fig. 1h-j), mean, untreated (0) = 1 ([1]; concentration 10, 12+12w): 4.902
- CMA activity (Fig. 1h-j), mean, untreated (0) = 1 ([1]; concentration 10, 12h): 3.813
- CMA activity (Fig. 1h-j), mean, untreated (0) = 1 ([1]; concentration 10, 24h): 5.096
- CMA activity (Fig. 1h-j), mean, untreated (0) = 1 ([1]; concentration 20, 12+12w): 5.399
- CMA activity (Fig. 1h-j), mean, untreated (0) = 1 ([1]; concentration 20, 12h): 5.105
- CMA activity (Fig. 1h-j), mean, untreated (0) = 1 ([1]; concentration 20, 24h): 7.74
- CMA activity (Fig. 1h-j), mean, untreated (0) = 1 ([1]; concentration 30, 12+12w): 7.708
- CMA activity (Fig. 1h-j), mean, untreated (0) = 1 ([1]; concentration 30, 12h): 5.817
- CMA activity (Fig. 1h-j), mean, untreated (0) = 1 ([1]; concentration 30, 24h): 10.6896
- CMA activation compared with AR7 ([1]; fluorescent CMA reporter in mouse fibroblasts, basal and inducible CMA): > 40 % CMA of AR7
- toxicity in cells ([1]; mouse fibroblasts): without noticeable toxicity
- CMA activity, mean (Fig. S2c) ([2]; concentration 0.02): 27.1536
- CMA activity, mean (Fig. S2c) ([2]; concentration 0.2): 22.1247
- CMA activity, mean (Fig. S2c) ([2]; concentration 2): 23.6319
- CMA activity, mean (Fig. S2c) ([2]; concentration 5): 30.8194
- CMA activation in human cells ([2]; in words): efficiently activated CMA
- effect on macroautophagy ([3]; NIH3T3, MRT-sensitive proteolysis, LC3-II flux, mCherry-GFP-LC3 reporter): did not have the inhibitory effect on macroautophagy
- APG (Fig. S3e) [3, 4]: 3.899
- AUT (Fig. S3e) [3, 4]: 0.5811
- AV (Fig. S3e) [3, 4]: 4.481
- APG (Fig. S3e) ([3]; c0 = 5 (axis unlabelled)): 3.275
- AUT (Fig. S3e) ([3]; c0 = 5 (axis unlabelled)): 0.7542
- AV (Fig. S3e) ([3]; c0 = 5 (axis unlabelled)): 4.029
- APG (Fig. S3e) ([3]; c0 = 10 (axis unlabelled)): 2.43
- AUT (Fig. S3e) ([3]; c0 = 10 (axis unlabelled)): 3.694
- AV (Fig. S3e) ([3]; c0 = 10 (axis unlabelled)): 6.1244
- APG (Fig. S3e) ([3]; c0 = 15 (axis unlabelled)): 2.828
- AUT (Fig. S3e) ([3]; c0 = 15 (axis unlabelled)): 3.073
- AV (Fig. S3e) ([3]; c0 = 15 (axis unlabelled)): 5.901
- APG (Fig. S3e) ([3]; c0 = 20 (axis unlabelled)): 2.044
- AUT (Fig. S3e) ([3]; c0 = 20 (axis unlabelled)): 3.746
- AV (Fig. S3e) ([3]; c0 = 20 (axis unlabelled)): 5.79
- APG (Fig. S3e) ([3]; c0 = 25 (axis unlabelled)): 2.063
- AUT (Fig. S3e) ([3]; c0 = 25 (axis unlabelled)): 4.0642
- AV (Fig. S3e) ([3]; c0 = 25 (axis unlabelled)): 6.127
- APG (Fig. S3e) ([3]; c0 = 30 (axis unlabelled)): 2.895
- AUT (Fig. S3e) ([3]; c0 = 30 (axis unlabelled)): 3.5777
- AV (Fig. S3e) ([3]; c0 = 30 (axis unlabelled)): 6.473
- APG (Fig. S3e) ([3]; c0 = 40 (axis unlabelled)): 2.857
- AUT (Fig. S3e) ([3]; c0 = 40 (axis unlabelled)): 3.822
- AV (Fig. S3e) ([3]; c0 = 40 (axis unlabelled)): 6.679
- APG (Fig. S3e) ([3]; c0 = 50 (axis unlabelled)): 4.838
- AUT (Fig. S3e) ([3]; c0 = 50 (axis unlabelled)): 2.082
- AV (Fig. S3e) ([3]; c0 = 50 (axis unlabelled)): 6.9193
